Reference: the COVID Moonshot data (paper PMC7615835)
“And” between values parts separate entries of the source, which are not always exact repeats. Equal entries are not always repeated.

Biological target: SARS-CoV-2 Main Protease (SARS-CoV-2) (UniProt P0DTD1)

O=C(Nc1cc[nH]c(=O)c1)C1CCOc2ccc(Cl)cc21 (stereo unspecified) was tested. Which IC50 did it give?
Its IC50 is > 99.5 µM.

For Cc1cn2nnc(C(=O)N(c3ccc(C(C)(C)C)cc3)C(C(=O)NCCc3cccc(F)c3)c3cccnc3)c2c(=O)[nH]1 (stereo unspecified), which IC50 is on record?
Its IC50 is > 99.5 µM.

For O=C(Cc1cc(Cl)cc(-c2nnn[nH]2)c1)Nc1cncc2ccccc12, which IC50 is on record?
Its IC50 is 21.4 µM.

With O=C(Nc1cncc2ccccc12)C1CCOc2c(O)cc(Cl)cc21 (stereo unspecified) as the compound, how does the IC50 read?
Its IC50 is 0.579 µM.

How did the IC50 turn out when O=C(NCCc1cccc(F)c1)C(c1cccnc1)N(C(=O)c1cnc[nH]1)c1cccc(C2COC2)c1 (stereo unspecified) was run?
The IC50 was > 99 µM.

COc1ccc(NC(=O)[C@@H]2CN(C(=O)CCl)CCN2S(=O)(=O)c2ccsc2)cc1 (stereo in doubt) was tested. Which IC50 did it give?
The IC50 was 0.45 µM.

Which IC50 does the source give for COCCc1ccc(Cl)cc1CN1CCN(C(=O)CCl)CC1 here?
Its IC50 is 2.2 µM.

How did the IC50 turn out when C[C@@H]1C[C@H](C(=O)Nc2cncc3ccccc23)c2cc(Cl)ccc2O1 (stereo in doubt) was run?
The IC50 was 0.679 µM.

How did the IC50 turn out when O=C(Nc1cncc2ccccc12)C1(CNc2c[nH]c(=O)[nH]c2=O)CCOc2cc(Cl)ccc21 (stereo unspecified) was run?
The IC50 was 5.36 µM.

CS(=O)(=O)Nc1ccc2c(NC(=O)Cc3cccc(Cl)c3)cncc2c1 was tested. Which IC50 did it give?
The IC50 was 0.882 µM.

For O=C(CCl)N1CCN(S(=O)(=O)c2cccc(F)c2)CC1, which IC50 is on record?
The IC50 was 4.1 µM and 5.05 µM and 2.38 µM.

N#CCC1(CS(=O)(=O)N2Cc3ccc(Cl)cc3C3(CCN(c4cncc5ccccc45)C3=O)C2)CC1 (stereo unspecified) was tested. Which IC50 did it give?
Its IC50 is 0.337 µM.

CN(c1ccc2c(NC(=O)Cc3cccc(Cl)c3)cncc2c1)S(C)(=O)=O was tested. Which IC50 did it give?
The IC50 was 2.7 µM.

For O=C(Cc1cncnc1)Nc1cc(F)cc(OC2CC(=O)N2)c1 (stereo unspecified), which IC50 is on record?
The IC50 was 24.6 µM and 25.3 µM.

C[C@H](C(=O)Nc1cncnc1)c1ccccc1 (stereo in doubt) was tested. Which IC50 did it give?
The IC50 was > 99.5 µM.

CC(C)(C)c1ccc(N(C(=O)c2cc(=O)c3c(O)cccc3o2)C(C(=O)NCCc2cccc(F)c2)c2cccnc2)cc1 (stereo unspecified) was tested. Which IC50 did it give?
The IC50 was > 99.5 µM.

Which IC50 does the source give for CC(C)S(=O)(=O)c1ccc(N(C(=O)c2cocn2)C(C(=O)NCCc2cccc(F)c2)c2cccnc2)cc1 (stereo unspecified) here?
The IC50 was 66.1 µM.

For Cc1nc2scc(C)n2c1CN1CCN(Cc2ccsc2)CC1, which IC50 is on record?
The IC50 was > 99.5 µM.

Which IC50 does the source give for CC(C)(O)c1ccc2cncc(NC(=O)C3CN(S(=O)(=O)CC4(C#N)CC4)Cc4ccc(Cl)cc43)c2c1 (stereo unspecified) here?
The IC50 was 1.14 µM.

How did the IC50 turn out when CC(C)(C)c1ccc(N(C(=O)c2ccco2)C(C(=O)NCCc2cccc(F)c2)c2[nH]nc3ccccc23)cc1 (stereo unspecified) was run?
Its IC50 is > 99.5 µM.

Which IC50 does the source give for O=C1CCCN1Cc1cccc(C(=O)N2CCC(C3CCNC3)CC2)c1 (stereo unspecified) here?
Its IC50 is > 99.5 µM.

With N#Cc1cccc(NC(=O)Nc2c[nH]c3ncccc23)c1 as the compound, how does the IC50 read?
Its IC50 is 63.6 µM.

With Cc1nnn(NC(=O)Cc2cccc(Cl)c2)c1C as the compound, how does the IC50 read?
The IC50 was 14.2 µM.

CC1(CS(=O)(=O)N2Cc3ccc(Cl)cc3C3(CCN(c4cncc5ccccc45)C3=O)C2)CC1 (stereo unspecified) was tested. Which IC50 did it give?
The IC50 was 0.265 µM.

For COc1ccccc1C(=O)N(c1ccc(C(C)(C)C)cc1)C(C(=O)NCCc1cccc(F)c1)c1cccnc1 (stereo unspecified), which IC50 is on record?
The IC50 was > 99.5 µM.

For O=C(Nc1cncc2ccccc12)C1(CO)CCOc2ccc(Cl)cc21 (stereo unspecified), which IC50 is on record?
Its IC50 is 1.09 µM.

For Cc1ccc(-c2ccc(C(=O)N3CC[C@H](N)C3)c(F)c2)cc1 (stereo in doubt), which IC50 is on record?
Its IC50 is > 99.5 µM.

CCNC(=O)c1ccc(N(C(=O)c2cocn2)C(C(=O)NCCc2cccc(F)c2)c2cccnc2)cc1 (stereo unspecified) was tested. Which IC50 did it give?
The IC50 was > 99.5 µM.

Which IC50 does the source give for CC(C)(C)c1ccc(N(C(=O)c2cn[nH]c2)C(C(=O)NCCc2cccc(F)c2)c2cccnc2)cc1 (stereo unspecified) here?
The IC50 was 5.83 µM.

With Cc1c(Cl)cccc1S(=O)(=O)N(Cc1ccc(F)cc1)c1ccc2[nH]c(=O)[nH]c2c1 as the compound, how does the IC50 read?
The IC50 was > 99.5 µM.

For CC(c1ccccc1)N(C(=O)c1cnc[nH]1)C(C(=O)NCCc1cccc(F)c1)c1cccnc1 (stereo unspecified), which IC50 is on record?
Its IC50 is > 99 µM.

Cn1cc(C(=O)N(c2ccc(C(C)(C)C)cc2)C(C(=O)NCCc2cccc(F)c2)c2cccnc2)n(C)c1=O (stereo unspecified) was tested. Which IC50 did it give?
The IC50 was > 99.5 µM.

With CC(C)(C)OC(=O)NCCNC(=O)C(c1cccnc1)N(C(=O)c1cocn1)c1ccc(C(C)(C)C)cc1 (stereo unspecified) as the compound, how does the IC50 read?
The IC50 was 6.26 µM.

With N#Cc1ccccc1NC(=O)[C@@H](c1ccccc1)N1Cc2ccccc2C1=O (stereo in doubt) as the compound, how does the IC50 read?
The IC50 was > 99.5 µM.

Which IC50 does the source give for CN(C)C(C(=O)Nc1cncc2ccccc12)c1ccc(Cl)c(Cl)c1 (stereo unspecified) here?
Its IC50 is 4.27 µM.

How did the IC50 turn out when CCN1CCCC1C1CCCN1C(=O)CCc1c[nH]c2ccccc12 (stereo unspecified) was run?
Its IC50 is > 99.5 µM.

With O=C(Cc1cc(Cl)cc(Nc2cccc(Br)c2)c1)Nc1cncc2ccccc12 as the compound, how does the IC50 read?
The IC50 was 2.07 µM.

O=C(Cc1cc(Cl)cc(NCc2ccc(I)cc2)c1)Nc1cncc2ccccc12 was tested. Which IC50 did it give?
Its IC50 is 4.37 µM.

O=C(NCCc1cccc(F)c1)C(c1cccnc1)N(C(=O)c1cocn1)C1CCc2cc(F)ccc21 (stereo unspecified) was tested. Which IC50 did it give?
The IC50 was > 99.5 µM.

Which IC50 does the source give for CC1(CS(=O)(=O)N2Cc3ccc(Cl)cc3C(C(=O)Nc3cncc4ccccc34)C2)CC1 (stereo unspecified) here?
Its IC50 is 0.098 µM.

O=C(Cc1cncc2ccccc12)N(CCC1CCCCC1)c1cccc(Cl)c1 was tested. Which IC50 did it give?
Its IC50 is 2.11 µM.

O=C(Nc1c[nH]c(=O)c2ccccc12)C1CCOc2ccc(Cl)cc21 (stereo unspecified) was tested. Which IC50 did it give?
Its IC50 is > 99.5 µM.

Which IC50 does the source give for O=C(NCCc1cccc(F)c1)C(c1cccnc1)N(C(=O)c1cocn1)C1CCCCC1 (stereo unspecified) here?
The IC50 was > 99.5 µM.

How did the IC50 turn out when Cc1ccncc1NC(=O)Cc1cc(Cl)cc(NS(C)(=O)=O)c1 was run?
The IC50 was 21.8 µM.

Which IC50 does the source give for NS(=O)(=O)CCc1ccccc1CN1CCN(C(=O)CCl)CC1 here?
The IC50 was 2.72 µM.

For CC(C)c1ccncc1NC(=O)Cc1cccc(Cl)c1, which IC50 is on record?
The IC50 was 19.5 µM.

O=C(Cc1cc(Cl)cc(N2CCN(C(=O)OCc3ccccc3)CC2)c1)Nc1cncc2ccccc12 was tested. Which IC50 did it give?
Its IC50 is 2.23 µM.

N#CCNC(=O)CN1Cc2ccc(Cl)cc2C2(CCN(c3cncc4ccccc34)C2=O)C1 (stereo unspecified) was tested. Which IC50 did it give?
The IC50 was 0.263 µM.

How did the IC50 turn out when N#CC1(CS(=O)(=O)N2Cc3ccc(Cl)cc3C3(CCN(c4cncc5c4CCCC5)C3=O)C2)CC1 (stereo unspecified) was run?
Its IC50 is 0.515 µM.

For CC(=O)c1ccc(N(C(=O)c2ccco2)C(C(=O)NCCc2cccc(F)c2)c2cccnc2)cc1 (stereo unspecified), which IC50 is on record?
The IC50 was 56.3 µM.

O=C(CCl)N1CCN(S(=O)(=O)c2cccs2)CC1 was tested. Which IC50 did it give?
Its IC50 is 2.07 µM and 2.26 µM.

Which IC50 does the source give for NS(=O)(=O)c1ccc2c(c1)CN(CC1CCN(C(=O)CCl)CC1)CC2 here?
Its IC50 is 19.5 µM.

With CNC(=O)CN1CC2(CCN(c3cncc4cc(Cl)ccc34)C2=O)c2cc(Cl)ccc2C1=O (stereo unspecified) as the compound, how does the IC50 read?
The IC50 was 0.449 µM.

For COc1cc2cncc(NC(=O)Cc3cccc(Cl)c3)c2cc1F, which IC50 is on record?
Its IC50 is > 99.5 µM.

For Cc1cc(C(F)(F)F)nc2c1c(N)nn2C(=O)C1CCOc2ccc(Cl)cc21 (stereo unspecified), which IC50 is on record?
Its IC50 is > 99.5 µM.

Which IC50 does the source give for COCCN1CCc2ccc(Cl)cc2C1C(=O)Nc1cncc2ccccc12 (stereo unspecified) here?
The IC50 was 1.88 µM.

How did the IC50 turn out when O=C(Cc1cc(Cl)cc(Nc2ccc(I)cc2)c1)Nc1cncc2ccccc12 was run?
Its IC50 is 1.84 µM.

For CN(c1cc(Cl)cc(CC(=O)Nc2cncc3ccccc23)c1)C(c1ccccc1)c1ccccc1, which IC50 is on record?
The IC50 was 2.34 µM.

How did the IC50 turn out when O=C(NCCc1cccc(F)c1)C(c1cccnc1)N(Cc1cc(C(F)(F)F)cs1)C(=O)c1ccco1 (stereo unspecified) was run?
Its IC50 is > 99.5 µM.

For CS(=O)(=O)Nc1ccc2cncc(NC(=O)C3CN(S(=O)(=O)CC4(C#N)CC4)Cc4ccc(Cl)cc43)c2c1 (stereo unspecified), which IC50 is on record?
The IC50 was 0.267 µM.

C=CC(=O)N(c1ccc(C(C)(C)C)cc1)C(C(=O)NC(C)(C)C)c1cccnc1 (stereo unspecified) was tested. Which IC50 did it give?
The IC50 was > 99 µM.

With CN(C)C(=O)CN1CC(C(=O)Nc2cncc3ccccc23)c2cc(Cl)ccc2C1=O (stereo unspecified) as the compound, how does the IC50 read?
The IC50 was 0.734 µM.

How did the IC50 turn out when CS(=O)(=O)Cc1ccc(N(C(=O)c2cocn2)C(C(=O)NCCc2cccc(F)c2)c2cccnc2)cc1 (stereo unspecified) was run?
Its IC50 is 27.7 µM.

CC(C)(C)Oc1ccncc1NC(=O)Cc1cccc(Cl)c1 was tested. Which IC50 did it give?
The IC50 was 22.9 µM.

Which IC50 does the source give for C=CC(=O)N(c1ccc(C(C)(C)C)cc1)C(C(=O)NCCOC)c1cccnc1 (stereo unspecified) here?
The IC50 was 55.8 µM.

For O=C(Cc1cc(Cl)cc(Nc2cnc(Br)c(Cl)n2)c1)Nc1cncc2ccccc12, which IC50 is on record?
The IC50 was 1.94 µM.

How did the IC50 turn out when O=C(Cc1cc(Cl)cc(Nc2cc(Cl)ccc2OC(F)(F)F)c1)Nc1cncc2ccccc12 was run?
Its IC50 is 2.12 µM.

For O=C(Nc1cncc2ccccc12)C1CN(C(=O)c2cnco2)Cc2ccc(Cl)cc21 (stereo unspecified), which IC50 is on record?
Its IC50 is 1.07 µM.

Which IC50 does the source give for O=C(Cc1cc(Cl)cc(Nc2ccc(F)nc2Br)c1)Nc1cncc2ccccc12 here?
The IC50 was 1.86 µM.

O=C(Cn1nnc2ccccc21)N(Cc1ccccc1)c1ccc(N2CCOCC2)cc1 was tested. Which IC50 did it give?
The IC50 was 19.8 µM.

Which IC50 does the source give for O=C(Cc1cccc(Cl)c1)Nc1n[nH]c2ccnc(Br)c12 here?
The IC50 was > 99.5 µM.
